Measured values reported in patent US20120230951A1 (priority 2011, published 2012).

system: GT-1a pRLuc H771b 75 S/I subgenomic replicon cell line; assay: HCV GT-1a replicon luciferase reporter assay; assay type: cell-based; conditions: Hepatitis C virus, GT1A, 72 h, read-out: GT-1a (IC50) (nM)
In short: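 Huh-7-derived subgenomic replicon cells (GT-1b Con1 2209-23, 5000/well; GT-1a H77 chimera with Con1 NS3 first 75 aa, 3000/well) in 5% FBS DMEM; compounds added 24 h post-plating, 3-fold dilutions, 1% DMSO. Renilla luciferase read after 72 h; EC50 is 50% signal reduction versus untreated, non-linear fit.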

Compound | IC50 [nM]
COC(=O)N[C@H]1CCc2cccc3c2N(C1=O)[C@H](c1ncc(-c2ccc(-c4ccc(-c5cnc([C@@H]6CCCN6C(=O)[C@@H](NC(=O)OC)C(C)C)[nH]5)cc4)cc2F)[nH]1)C3 [Compound I-36, {(2S,5S)-2-[5-(3-Fluoro-4′-{2-[(S)-1-((S)-2-methoxycarbonylamino-3-methyl-butyryl)-pyrrolidin-2-yl]-1H-imidazol-4-yl}-biphenyl-4-yl)-1H-imidazol-2-yl]-4-oxo-1,2,4,5,6,7-hexahydro-azepino[3,2,1-hi]indol-5-yl}-carbamic acid methyl ester] | 13.8
COC(=O)N[C@H]1CCc2cccc3c2N(C1=O)[C@H](c1ncc(-c2ccc(-c4ccc(-c5cnc([C@@H]6CCCN6C(=O)[C@@H](NC(=O)OC)C(C)C)[nH]5)cc4F)cc2)[nH]1)C3 [Compound I-37, {(2S,5S)-2-[5-(2′-Fluoro-4′-{2-[(S)-1-((S)-2-methoxycarbonylamino-3-methyl-butyryl)-pyrrolidin-2-yl]-1H-imidazol-4-yl}-biphenyl-4-yl)-1H-imidazol-2-yl]-4-oxo-1,2,4,5,6,7-hexahydro-azepino[3,2,1-hi]indol-5-yl}-carbamic acid methyl ester] | 5.22
COC(=O)N[C@H]1CCc2cccc3c2N(C1=O)[C@H](c1ncc(-c2ccc(-c4ccc(-c5cnc([C@@H]6CCCN6C(=O)[C@@H](NC(=O)OC)C(C)C)[nH]5)cc4C#N)cc2)[nH]1)C3 [Compound I-38, {(2S,5S)-2-[5-(2′-Cyano-4′-{2-[(S)-1-((S)-2-methoxycarbonylamino-3-methyl-butyryl)-pyrrolidin-2-yl]-1H-imidazol-4-yl}-biphenyl-4-yl)-1H-imidazol-2-yl]-4-oxo-1,2,4,5,6,7-hexahydro-azepino[3,2,1-hi]indol-5-yl}-carbamic acid methyl ester] | 22.4
COC(=O)N[C@H]1CCc2cccc3c2N(C1=O)[C@H](c1ncc(-c2ccc(-c4ccc(-c5cnc([C@@H]6C[C@@H](C#N)CN6C(=O)[C@@H](NC(=O)OC)C(C)C)[nH]5)cc4)cc2)[nH]1)C3 [Compound I-39, {(2S,5S)-2-[5-(4′-{2-[(2S,4R)-4-Cyano-1-((S)-2-methoxycarbonylamino-3-methyl-butyryl)-pyrrolidin-2-yl]-3H-imidazol-4-yl}-biphenyl-4-yl)-1H-imidazol-2-yl]-4-oxo-1,2,4,5,6,7-hexahydro-azepino[3,2,1-hi]indol-5-yl}-carbamic acid methyl ester] | 5.34
COC(=O)N[C@H]1CCc2cccc3c2N(C1=O)[C@H](c1ncc(-c2ccc(-c4ccc(-c5cnc([C@@H]6C[C@H](C#N)CN6C(=O)[C@@H](NC(=O)OC)C(C)C)[nH]5)cc4)cc2)[nH]1)C3 [Compound I-40, {(2S,5S)-2-[5-(4′-{2-[(2S,4S)-4-Cyano-1-((S)-2-methoxycarbonylamino-3-methyl-butyryl)-pyrrolidin-2-yl]-3H-imidazol-4-yl}-biphenyl-4-yl)-1H-imidazol-2-yl]-4-oxo-1,2,4,5,6,7-hexahydro-azepino[3,2,1-hi]indol-5-yl}-carbamic acid methyl ester] | 7.85
COC(=O)N[C@H]1CCc2cccc3c2N(C1=O)[C@H](c1ncc(-c2ccc(-c4ccc5cc(-c6cnc([C@@H]7C[C@H](C#N)CN7C(=O)[C@@H](NC(=O)OC)C(C)C)[nH]6)ccc5c4)cc2)[nH]1)C3 [Compound I-41, {(2S,5S)-2-{5-[4-(6-{2-[(2S,4S)-4-Cyano-1-((S)-2-methoxycarbonylamino-3-methyl-butyryl)-pyrrolidin-2-yl]-3H-imidazol-4-yl}-naphthalen-2-yl)-phenyl]-1H-imidazol-2-yl]-4-oxo-1,2,4,5,6,7-hexahydro-azepino[3,2,1-hi]indol-5-yl}-carbamic acid methyl ester] | 2.49
COC(=O)N[C@H]1CCc2cccc3c2N(C1=O)[C@H](c1ncc(-c2ccc(-c4ccc5cc(-c6cnc([C@@H]7CC(F)(F)CN7C(=O)[C@@H](NC(=O)OC)C(C)C)[nH]6)ccc5c4)cc2)[nH]1)C3 [Compound I-42, {(2S,5S)-2-{5-[4-(6-{2-[(S)-4,4-Difluoro-1-((S)-2-methoxycarbonylamino-3-methyl-butyryl)-pyrrolidin-2-yl]-3H-imidazol-4-yl}-naphthalen-2-yl)-phenyl]-1H-imidazol-2-yl}-4-oxo-1,2,4,5,6,7-hexahydo-azepino[3,2,1-hi]indol-5-yl}-carbamic acid methyl ester] | 1.17
COC[C@H](NC(=O)OC)C(=O)N1CCC[C@H]1c1ncc(-c2ccc(-c3ccc(-c4cnc([C@@H]5Cc6cccc7c6N5C(=O)[C@@H](NC(=O)OC)CC7)[nH]4)cc3)cc2)[nH]1 [Compound I-43] | 5.64
COC(=O)N[C@H]1CCc2cccc3c2N(C1=O)[C@H](c1ncc(-c2ccc(-c4ccc(-c5cnc([C@@H]6CCCN6C(=O)[C@@H](NC(=O)OC)C6CC6)[nH]5)cc4)cc2)[nH]1)C3 [Compound I-44] | 11.4
CC[C@H](NC(=O)OC)C(=O)N1CCC[C@H]1c1ncc(-c2ccc(-c3ccc(-c4cnc([C@@H]5Cc6cccc7c6N5C(=O)[C@@H](NC(=O)OC)CC7)[nH]4)cc3)cc2)[nH]1 [Compound I-45] | 17.1
COCC[C@H](NC(=O)OC)C(=O)N1CCC[C@H]1c1ncc(-c2ccc(-c3ccc(-c4cnc([C@@H]5Cc6cccc7c6N5C(=O)[C@@H](NC(=O)OC)CC7)[nH]4)cc3)cc2)[nH]1 [Compound I-46] | 2.96
COC(=O)N[C@H]1CCc2cccc3c2N(C1=O)[C@H](c1ncc(-c2ccc(-c4ccc(-c5cnc([C@@H]6CCCN6C(=O)C6(NC(=O)OC)COC6)[nH]5)cc4)cc2)[nH]1)C3 [Compound I-47] | 110
COC(=O)NC(C(=O)N1CCC[C@H]1c1ncc(-c2ccc(-c3ccc(-c4cnc([C@@H]5Cc6cccc7c6N5C(=O)[C@@H](NC(=O)OC)CC7)[nH]4)cc3)cc2)[nH]1)C1CCOCC1 (some centres unmarked) [Compound I-48] | 2.83
COC(=O)N[C@@H](C)C(=O)N1CCC[C@H]1c1ncc(-c2ccc(-c3ccc(-c4cnc([C@@H]5Cc6cccc7c6N5C(=O)[C@@H](NC(=O)OC)CC7)[nH]4)cc3)cc2)[nH]1 [Compound I-49, {(2S,5S)-2-[5-(4-{2-[(S)-1-((S)-2-Methoxycarbonylamino-propionyl)-pyrolidin-2-yl]-3H-imidazol-4-yl}-biphenyl-4-yl)-1H-imidazol-2-yl]-4-oxo-1,2,4,5,6,7-hexahydro-azepino[3,2,1-hi]indol-5-yl}-carbamic acid methyl ester] | 3.91
CC[C@H](C)[C@H](NC(=O)OC)C(=O)N1CCC[C@H]1c1ncc(-c2ccc3nc(-c4ccc(-c5cnc([C@@H]6Cc7cccc8c7N6C(=O)[C@@H](NC(=O)OC)CC8)[nH]5)cc4)cnc3c2)[nH]1 [Compound I-53, ((2S,5S)-2-{5-[4-(6-{2-[(S)-1-((2S,3S)-2-Methoxycarbonylamino-3-methyl-pentanoyl)-pyrrolidin-2-yl]-3H-imidazol-4-yl}-quinoxalin-2-yl)-phenyl]-1H-imidazol-2-yl}-4-oxo-1,2,4,5,6,7-hexahydroazepino[3,2,1-hi]indol-5yl)-carbamic acid methyl ester] | 1.36
COC(=O)N[C@H]1CCc2cccc3c2N(C1=O)[C@H](c1ncc(-c2ccc(-c4cnc5cc(-c6cnc([C@@H]7CCCN7C(=O)[C@@H](NC(=O)OC)C(C)(C)C)[nH]6)ccc5n4)cc2)[nH]1)C3 [Compound I-54, ((2S,5S)-2-{5-[4-(6-{2-[(S)-1-((S)-2-Methoxycarbonylamino-3,3-dimethyl-butyryl)-pyrrolidin-2-yl]-3H-imidazol-4-yl}-quinoxalin-2-yl)-phenyl]-1H-imidazol-2-yl}-4-oxo-1,2,4,5,6,7-hexahydro-azepino[3,2,1-hi]indol-5-yl)-carbamic acid methyl ester] | 0.949
CC[C@H](C)[C@H](NC(=O)OC)C(=O)N1CCC[C@H]1c1ncc(-c2ccc(-c3cnc4cc(-c5cnc([C@@H]6Cc7cccc8c7N6C(=O)[C@@H](NC(=O)OC)CC8)[nH]5)ccc4n3)cc2)[nH]1 [Compound I-56, ((2S,5S)-2-{5-[2-(4-{2-[(S)-1-((2S,3S)-2-Methoxycarbonylamino-3 methyl-pentanoyl)-pyrrolidin-2-yl]-3H-imidazol-4-yl}-phenyl)quinoxalin-6-yl]-1H-imidazol-2-yl}-4-oxo-1,2,4,5,6,7-hexahydro-azepino[3,2,1-hi]indol-5-yl)-carbamic acid methyl ester] | 3
COC(=O)N[C@H]1CCc2cccc3c2N(C1=O)[C@H](c1ncc(-c2ccc(-c4ncc(-c5cnc([C@@H]6CC(F)(F)CN6C(=O)[C@@H](NC(=O)OC)C(C)C)[nH]5)cn4)cc2)[nH]1)C3 [Compound I-57, ((2S,5S)-2-{4-[4-(5-{2-[(S)-4,4-Difluoro-1-(2-methoxycarbonylamino-3-methyl-butyryl)-pyrrolidin-2-yl]-3H-imidazol-4-yl}-pyrimidin-2-yl)-phenyl]-1H-imidazol-2-yl}-4-oxo-1,2,4,5,6,7-hexahydro-azepino[3,2,1-hi]indol-5-yl)-carbamic acid methyl ester] | 17.1
CC[C@H](C)[C@H](NC(=O)OC)C(=O)N1CC(F)(F)C[C@H]1c1ncc(-c2cnc(-c3ccc(-c4cnc([C@@H]5Cc6cccc7c6N5C(=O)[C@@H](NC(=O)OC)CC7)[nH]4)cc3)nc2)[nH]1 [Compound I-58, ((1S,2S)-1-{(S)-4,4-Difluoro-2-[5-(2-{4-[2-((2S,5S)-5-methoxycarbonylamino-4-oxo-1,2,4,5,6,7-hexahydro-azepino[3,2,1-hi]indol-2-yl)-1H-imidazol-4-yl]-phenyl}-pyrimidin-5-yl)-1H-imidazol-2-yl]-pyrrolidine-1-carbonyl}-2-methyl-butyl)-carbamic acid methyl ester] | 26.1
COC(=O)N[C@H]1CCc2cccc3c2N(C1=O)[C@H](c1ncc(-c2ccc(-c4ccc(-c5nnc([C@@H]6CCCN6C(=O)[C@H](NC(=O)OC)c6ccccc6)[nH]5)cc4)cc2)[nH]1)C3 [Compound I-60, {(2S,5S)-2-[5-(4′-{5-[(S)-1-((R)-2-Methoxycarbonylamino-2-phenyl-acetyl)-pyrrolidin-2-yl]-4H-[1,2,4]triazol-3-yl}-biphenyl-4-yl)-1H-imidazol-2-yl]-4-oxo-1,2,4,5,6,7-hexahydro-azepino[3,2,1-hi]indol-5-yl}-carbamic acid methyl ester] | 51.4
